According to paper PMC6628374, “Preparation and Identification of Novel Antihypertensive Peptides from the In Vitro Gastrointestinal Digestion of Marine Cobia Skin Hydrolysates” (Nutrients, 2019):
Like-named read-outs stand apart in the source and are kept apart here. Blank lines part the entries; values can stand above or below the compound they belong to. Peptide text beside a SMILES is read from it.

Assays:
[1] = target: T1, Rabbit lung ACE (Oryctolagus cuniculus, UniProt P12822); assay: ACE inhibition assay (RP-HPLC, HHL substrate); type: biochemical; conditions: for Inhibition (%): at the peak's own peptide concentration; for IC50: identified peptides of peaks E6 to E9
T1 construct: Enzymes including pepsin, pancreatin and rabbit lung ACE were purchased from Sigma Chemical Co; purchased Sigma Chemical Co. (St. Louis, MO, USA); host or cells: rabbit lung (tissue-derived)
T1 sequence (P12822 34-1310): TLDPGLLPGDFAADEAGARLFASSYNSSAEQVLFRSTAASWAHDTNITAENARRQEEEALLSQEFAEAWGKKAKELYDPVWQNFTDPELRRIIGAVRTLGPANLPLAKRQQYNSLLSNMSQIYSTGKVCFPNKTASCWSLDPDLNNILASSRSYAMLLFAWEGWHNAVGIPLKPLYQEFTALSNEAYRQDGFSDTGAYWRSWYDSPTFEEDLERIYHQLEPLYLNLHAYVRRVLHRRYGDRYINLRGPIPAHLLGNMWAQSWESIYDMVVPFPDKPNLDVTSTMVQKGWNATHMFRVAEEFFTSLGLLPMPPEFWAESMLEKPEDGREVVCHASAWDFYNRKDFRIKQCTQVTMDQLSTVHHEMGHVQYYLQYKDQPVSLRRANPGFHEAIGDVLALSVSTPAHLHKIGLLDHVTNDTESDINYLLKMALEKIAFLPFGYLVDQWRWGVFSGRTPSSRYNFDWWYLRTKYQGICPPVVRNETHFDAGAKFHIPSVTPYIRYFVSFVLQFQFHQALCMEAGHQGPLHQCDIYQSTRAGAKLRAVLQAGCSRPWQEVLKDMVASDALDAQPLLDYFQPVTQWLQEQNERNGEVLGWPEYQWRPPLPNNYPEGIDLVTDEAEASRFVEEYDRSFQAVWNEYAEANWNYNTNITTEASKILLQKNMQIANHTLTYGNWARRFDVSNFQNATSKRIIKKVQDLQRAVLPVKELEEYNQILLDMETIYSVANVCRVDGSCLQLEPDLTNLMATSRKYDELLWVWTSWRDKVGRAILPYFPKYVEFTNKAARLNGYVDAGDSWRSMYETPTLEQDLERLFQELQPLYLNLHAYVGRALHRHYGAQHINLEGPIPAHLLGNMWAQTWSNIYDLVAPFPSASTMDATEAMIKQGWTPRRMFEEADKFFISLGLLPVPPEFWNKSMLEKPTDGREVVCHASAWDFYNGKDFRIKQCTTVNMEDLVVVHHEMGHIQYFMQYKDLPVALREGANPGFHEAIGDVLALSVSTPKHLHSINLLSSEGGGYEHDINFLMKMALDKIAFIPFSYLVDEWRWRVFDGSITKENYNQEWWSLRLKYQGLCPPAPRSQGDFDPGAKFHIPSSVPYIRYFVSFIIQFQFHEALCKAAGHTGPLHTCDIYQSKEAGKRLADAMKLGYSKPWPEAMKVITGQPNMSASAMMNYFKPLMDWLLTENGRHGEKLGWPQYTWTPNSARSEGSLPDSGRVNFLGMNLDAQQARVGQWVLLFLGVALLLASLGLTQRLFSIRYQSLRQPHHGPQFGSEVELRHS
Protocol: RP-HPLC was used to measure ACE inhibition by means of a method devised by Cushman and Cheung. The sample consisted of 15 mM HHL in Na-borate buffer (100 mM, pH 8.3) plus NaCl (300 mM). […] Equal volumes (75 μL) of the ACE solution and samples passed through a 5-kDa MWCO membrane were then incubated for 10 min at 37 °C. […] of the solution of HHL was then added and incubation was continued for a further 30 min. 1.0 N HCl (250 μL) was used to stop the reaction and 10 μL was injected into a Luna C18 column. […] Finally, inhibition activity was calculated using the following formula:Inhibition activity (%) = ((Ec - Es) / (Ec - Eb)) × 100where Ec is the absorbance when the buffer was added as control, Es is the absorbance when the sample was added to the reaction mixture (sample), and Eb is the absorbance when the stop solution was added before the reaction occurred (blank). […] The data used in this study were all averages of three readings or standard deviations (SDs).

[2] = test system: ACE; conditions: cited from earlier work
[3] = design: method as in doi:10.1016/j.idairyj.2015.09.004; conditions: human volunteers, 100 mg oral, after 30 min; cited from earlier work
[4] = test system: ACE activity in plasma; design: method as in doi:10.1016/j.idairyj.2015.09.004; conditions: human volunteers, 100 mg oral, at 1.5 h; cited from earlier work
[5] = target: angiotensin I-converting enzyme (rabbit lung ACE) (rabbit) (UniProt P12822)
[6] = target: angiotensin I-converting enzyme (rabbit lung ACE) (rabbit) (UniProt P12822); remark: listed apart in the source
[7] = RP-HPLC peaks of fraction E from PX-5G
[8] = equivalent of the μM value, read-out: IC50 (mg/mL) (converted)
[9] = peptides from Pacific cod skin gelatin hydrolysates (<1 kDa)
[10] = dipeptides from salmon muscle hydrolysate

Compound: Ala-Trp-Trp (peptide)
Inhibition (%) of ACE enzyme activity by peak E7 at 0.058 mg/mL peptide [5]: 81.1%
IC50 of inhibition of ACE enzyme activity (hippuric acid released from HHL, RP-HPLC, 37 °C, pH 8.3) [6]: 9.4 μM

Compound: G-A-S-S-G-M-P-G (GASSGMPG)
IC50 [2, 9]: 6.9 µM

Compound: G–R-G-S–V-P–A–Hyp–G-P
IC50 ([2]; peptide from squid skin collagen hydrolysate fraction <1 kDa): 47.8 µM

Compound: Ile-Trp-Trp (peptide)
Inhibition (%) of ACE enzyme activity by peak E8 at 0.028 mg/mL peptide [5]: 93.4%
IC50 of inhibition of ACE enzyme activity (hippuric acid released from HHL, RP-HPLC, 37 °C, pH 8.3) [6]: 0.51 μM

Compound: L-A-Y-A
IC50 [2, 9]: 14.5 µM

Compound: Leu-Trp
ACE-inhibition mode [2]: noncompetitive inhibitors

Compound: Met-Trp
IC50 [2, 10]: 9.8 µM

Compound: Trp-Ala-Ala (peptide)
Inhibition (%) of ACE enzyme activity by peak E6 at 0.048 mg/mL peptide [5]: 41.9%
IC50 of inhibition of ACE enzyme activity (hippuric acid released from HHL, RP-HPLC, 37 °C, pH 8.3) [6]: 118 μM

Compound: Trp-Leu (peptide)
Inhibition (%) of ACE enzyme activity by peak E9 at 0.014 mg/mL peptide [5]: 42.3%
IC50 of inhibition of ACE enzyme activity (hippuric acid released from HHL, RP-HPLC, 37 °C, pH 8.3) [6]: 26.8 μM

Compound: Trp-Met
IC50 [2, 10]: 98.6 µM

Compound: Val-Arg-Tyr-Leu (VRYL; printed: Val-Arg-Tyr-Leu)
IC50 before hydrolysis with gastrointestinal proteases ([2]; peptide from Manchego cheese): 9 µg/mL

Now from value to compound, other results behind:

Inhibition (%) [1, 7]: 41.9%
IC50 [1, 8]: 119 µM
IC50 ([1]; read-out: IC50): 118 ± 2.8 µM
Compound: C[C@H](NC(=O)[C@H](C)NC(=O)[C@@H](N)Cc1c[nH]c2ccccc12)C(=O)O [Peak E6, Trp-Ala-Ala] (H-Trp-Ala-Ala-OH)

Inhibition (%) [1, 7]: 81.1%
IC50 [1, 8]: 9.4 µM
IC50 ([1]; read-out: IC50): 9.4 ± 0.6 µM
Compound: C[C@H](N)C(=O)N[C@@H](Cc1c[nH]c2ccccc12)C(=O)N[C@@H](Cc1c[nH]c2ccccc12)C(=O)O [Peak E7, Ala-Trp-Trp] (H-Ala-Trp-Trp-OH)

Inhibition (%) [1, 7]: 93.4%
IC50 [1, 8]: 0.516 µM
IC50 ([1]; read-out: IC50): 0.51 ± 0.1 µM
Compound: CC[C@H](C)[C@H](N)C(=O)N[C@@H](Cc1c[nH]c2ccccc12)C(=O)N[C@@H](Cc1c[nH]c2ccccc12)C(=O)O [Peak E8, Ile-Trp-Trp] (H-Ile-Trp-Trp-OH)

IER (inhibitory efficiency ratio) [1, 7]: 3021.4 %/mg/mL
Inhibition (%) [1, 7]: 42.3%
IC50 [1, 8]: 26.8 µM
IC50 ([1]; read-out: IC50): 26.8 ± 0.9 µM
Compound: CC(C)C[C@H](NC(=O)[C@@H](N)Cc1c[nH]c2ccccc12)C(=O)O [Peak E9, Trp-Leu] (H-Trp-Leu-OH; N-terminus and C-terminus assumed)
ACE-inhibition mode [2]: noncompetitive inhibitors
IC50 [2]: 29.9 to 34.1 µM
maximum plasma concentration [3]: 29 to 36 pmol/mL
decrease of ACE activity in plasma [4]: 16–22%
